# Assay results as given in US8367328B2, “Method for synthesizing DNA” (Takara Bio Inc., priority 1998, dated 2013).
# Key:
# [1] = system: Pfu DNA Polymerase I and Pfu DNA Polymerase II; experiment: PCR with Pfu DNA Polymerase I plus Pfu DNA Polymerase II in the presence of acidic substances; assay type: biochemical, Pyrococcus furiosus; details: commercially available sodium alginate, 100 to 1000 centipoises; Example 12 conditions
# Procedure: Using λDNA as a template, and each of primers λ1 and λ3, primers λ1 and λ4, or primers λ1 and λ5 as a primer pair, the reaction mixture having the following composition was prepared.
# Composition of Reaction Mixture: 10 mM Tris-hydrochloric acid (pH 9.2), 75 mM potassium chloride, 6 mM magnesium chloride, 0.4 mM each of dATP, dCTP, dGTP and dTTP, 0.01% BSA, 1.25 U of Pfu DNA Polymerase I and 1.25 U of Pfu DNA Polymerase II, 500 pg of λDNA, and 5 pmol each of the primers, 5 ng or 50 ng of sulfated-fucose-containing polysaccharide-F (a final volume being 25 μl). In addition, as a control, one without addition of sulfated-fucose-containing polysaccharide-F was prepared.
# The reaction in 30 cycles was carried out for each of these reaction mixtures, wherein one cycle of reaction comprises a process consisting of 98° C., 0 seconds—68° C., 0 seconds. Thereafter, 5 μl of the resulting reaction mixture was subjected to electrophoresis on 1% agarose gel containing ethidium bromide in an amount of 0.00005%, whereby an amplified fragment was confirmed.
# PCR was carried out by using in combination Pfu DNA Polymerase II obtained in Example 1 and Pfu DNA Polymerase I (manufactured by Stratagene), which is α-type DNA polymerase, and sodium alginate, which is an acidic substance.
# A reaction mixture comprising λDNA as a template, primers λ1 and λ3 as a primer pair was prepared, and PCR was carried out. […]
# [2] = target: T1, TaKaRa Taq DNA Polymerase (Thermus aquaticus, UniProt P19821); experiment: PCR with TaKaRa Taq DNA Polymerase in the presence of acidic substances; assay type: biochemical; details: 1 kb fragment; 100 pg λDNA, primers λ1/λ3, 30 cycles 98°C 10 s–68°C 1 min, 50 μl; amount added 1 μg
# T1 construct: purchased Takara Shuzo Co., Ltd
# Procedure: Using the sulfated-fucose-containing polysaccharide-F obtained in Example 6 described above or sodium alginate, the effects of these acidic substances imparted on TaKaRa Taq DNA Polymerase (manufactured by Takara Shuzo Co., Ltd.) were examined. In this example, PCR was carried out in normal mode by using TaKaRa PCR Thermal Cycler Personal.
# A reaction mixture comprising λDNA as a template, primers λ1 and λ3 as a primer pair, and TaKaRa Taq DNA Polymerase as DNA polymerase was prepared, and PCR was carried out. The composition of the reaction mixture is as follows.
# TaKaRa Taq DNA Polymerase buffer, 0.2 mM each of dATP, dCTP, dGTP and dTTP, 1.25 U of TaKaRa Taq DNA Polymerase, 100 pg of λDNA, and 10 pmol each of primers λ1 and λ3 (a final volume being 50 μl). Further, 0.1 ng or 0.25 ng each of the sulfated-fucose-containing polysaccharide-F or 1 μg of sodium alginate was respectively added to the above reaction mixture.
# The reaction was carried out in 30 cycles, wherein one cycle of reaction comprises a process consisting of 98° C., 10 seconds—68° C., 1 minute. After the termination of the reaction, 5 μl of the resulting reaction mixture was subjected to electrophoresis on 1% agarose gel containing ethidium bromide in an amount of 0.00005%, whereby an amplified fragment was confirmed.
# [3] = system: TaKaRa EX-Taq DNA Polymerase; experiment: LA-PCR with TaKaRa EX-Taq DNA Polymerase in the presence of acidic substances; assay type: biochemical; details: 10 kb fragment
# Procedure: (1) The effects of the acidic substances were studied on LA-PCR method comprising a combination of DNA polymerase having 3′→5′ exonuclease activity, and DNA polymerase having no such activity. A reaction mixture comprising λDNA as a template, primers λ1 and λ8 as a primer pair was prepared, and PCR was carried out. In this PCR, TaKaRa EX-Taq DNA Polymerase (manufactured by Takara Shuzo Co., Ltd.) was used. The composition of the reaction mixture is as follows.
# In the following example, PCR was carried out in Fast mode by using TaKaRa PCR Thermal Cycler Personal (manufactured by Takara Shuzo Co., Ltd.).
# […] Further, 1 ng of the sulfated-fucose-containing polysaccharide-F or 0.5 μg of sodium alginate was respectively added to the above reaction mixture.
# […] After the termination of the reaction, 5 μl of the resulting reaction mixture was subjected to electrophoresis on 1% agarose gel containing ethidium bromide in an amount of 0.00005%, whereby an amplified fragment was confirmed.
# Further, PCR was carried out for a reaction having the same composition as the above reaction mixture except for using 100 pg of λDNA as template DNA, and adding 0.25 μg of sodium alginate or 1 ng of the sulfated-fucose-containing polysaccharide-F as an acidic substance.
# The reaction was carried out in 29 cycles, wherein one cycle of reaction comprises a process consisting of 98° C., 5 seconds—68° C., 3 minutes. […]
# T1 sequence (P19821 whole entry, the tested form may be a part): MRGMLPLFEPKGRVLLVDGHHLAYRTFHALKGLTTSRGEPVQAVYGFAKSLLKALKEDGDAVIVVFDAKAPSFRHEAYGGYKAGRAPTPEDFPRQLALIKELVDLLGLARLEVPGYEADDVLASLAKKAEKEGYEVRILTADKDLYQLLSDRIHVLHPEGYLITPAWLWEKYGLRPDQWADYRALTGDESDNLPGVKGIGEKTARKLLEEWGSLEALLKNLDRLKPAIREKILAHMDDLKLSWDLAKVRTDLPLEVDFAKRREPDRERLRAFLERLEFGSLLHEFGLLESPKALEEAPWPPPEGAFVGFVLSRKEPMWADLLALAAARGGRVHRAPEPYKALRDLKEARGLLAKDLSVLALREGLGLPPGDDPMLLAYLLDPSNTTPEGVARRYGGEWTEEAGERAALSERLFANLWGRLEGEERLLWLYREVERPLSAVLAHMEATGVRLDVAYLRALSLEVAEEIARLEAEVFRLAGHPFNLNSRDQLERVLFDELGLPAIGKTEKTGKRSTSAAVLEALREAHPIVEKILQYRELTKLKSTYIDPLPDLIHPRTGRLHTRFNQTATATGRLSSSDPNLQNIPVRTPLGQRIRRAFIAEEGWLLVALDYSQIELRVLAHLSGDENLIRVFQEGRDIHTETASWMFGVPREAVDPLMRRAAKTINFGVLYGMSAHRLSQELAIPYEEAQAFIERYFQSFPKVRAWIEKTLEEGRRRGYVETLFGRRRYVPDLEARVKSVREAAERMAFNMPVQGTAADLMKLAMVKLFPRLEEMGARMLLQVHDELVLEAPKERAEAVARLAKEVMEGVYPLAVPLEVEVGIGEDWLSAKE
substance,measurement,setting,value
sodium alginate,"Amplification efficiency for DNA synthesis, sodium alginate of each viscosity",[1],completely the same improvements
same,Amplification Results,[2],+ (Amplification being observed)
same,Amplification Results,"[3]; template DNA 10 pg, primers λ1/λ8, 27 cycles 98°C 5 s–68°C 3 min, amount added 0.5 μg",++ (Intensive amplification being observed)
same,Amplification Results,"[3]; template DNA 100 pg, primers λ1/λ8, 29 cycles 98°C 5 s–68°C 3 min, amount added 0.25 μg",++ (Intensive amplification being observed)
